Measured values taken from patent US20220396565A1 (Hoffmann-La Roche Inc., priority 2020, published 2022).
Where a name gives a salt, the structure may show the parent alone.

System: Acinetobacter baumannii ATCC17961
Experiment: Antimicrobial susceptibility testing: 90% growth inhibitory concentration (IC90) determination, Iso-Sensitest broth
Format: cell-based
Conditions: Acinetobacter baumannii, ATCC17961, 90% growth inhibitory concentration, Acinetobacter baumannii ATCC17961, Iso-Sensitest broth; read-out: ATCC 17961 IC90
Procedure, shortened: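 Twofold serial dilutions (e.g. 10 to 0.02 μM final) were tested in Iso-Sensitest broth against ~5×10^(5) CFU/ml at 35±2 °C. OD600 was read every 20 min over 16 h. IC90 was derived from growth inhibition during the logarithmic phase.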

SMILES	IC90 [nM]
Cn1c(-c2ccc(OCF)c(F)c2F)cnc1C(=O)Nc1ccc(C(=O)N2CCN(C(=O)C3[C@H]4CNC[C@@H]34)CC2)c(Cl)c1 (stereo partly drawn) [Example 136, N-[4-[4-[(1R,5S)-3-azabicyclo[3.1.0]hexane-6-carbonyl]piperazine-1-carbonyl]-3-chloro-phenyl]-5-[2,3-difluoro-4-(fluoromethoxy)phenyl]-1-methyl-imidazole-2-carboxamide formate]	30
COc1ccc(-c2cnc(C(=O)Nc3ccc(C(=O)N4CCC(C(=O)N5CCC(N)CC5)CC4)c(Cl)c3)n2C)c(F)c1F [Example 39, N-[4-[4-(4-aminopiperidine-1-carbonyl)piperidine-1-carbonyl]-3-chloro-phenyl]-5-(2,3-difluoro-4-methoxy-phenyl)-1-methyl-imidazole-2-carboxamide formate]	70
COc1ccc(-c2cnc(C(=O)Nc3ccc(C(=O)N4CCN(C(=O)CCCN)CC4)c(Cl)c3)n2C)c(F)c1F [Example 121, N-[4-[4-(4-aminobutanoyl)piperazine-1-carbonyl]-3-chloro-phenyl]-5-(2,3-difluoro-4-methoxy-phenyl)-1-methyl-imidazole-2-carboxamide; formic acid]	40
COc1ccc(-c2cnc(C(=O)Nc3ccc(C(=O)N4CCN(C(=O)[C@H]5CCNC5)CC4)c(Cl)c3)n2C)c(F)c1F [Example 139, N-[3-chloro-4-[4-[(3S)-pyrrolidine-3-carbonyl]piperazine-1-carbonyl]phenyl]-5-(2,3-difluoro-4-methoxy-phenyl)-1-methyl-imidazole-2-carboxamide formate]	40
Cn1c(-c2ccc(OCF)cc2F)cnc1C(=O)Nc1ccc(C(=O)N2CCN(C(=O)N3CC[C@@H](N)C3)CC2)c(Cl)c1 [Example 26, (R)-N-(4-(4-(3-aminopyrrolidine-1-carbonyl)piperazine-1-carbonyl)-3-chlorophenyl)-5-(2-fluoro-4-(fluoromethoxy)phenyl)-1-methyl-1H-imidazole-2-carboxamide formate]	30
COc1ccc(-c2cnc(C(=O)Nc3ccc(C(=O)N4CCC(C(=O)NCc5ccncc5)CC4)c(Cl)c3)n2C)c(F)c1F [Example 36, 1-[2-chloro-4-[[5-(2,3-difluoro-4-methoxy-phenyl)-1-methyl-imidazole-2-carbonyl]amino]benzoyl]-N-(4-pyridylmethyl)piperidine-4-carboxamide]	130
COc1ccc(-c2cnc(C(=O)Nc3ccc(C(=O)N4CCC(C(=O)NC[C@@H]5CCNC5)CC4)c(Cl)c3)n2C)c(F)c1F [Example 55, 1-[2-chloro-4-[[5-(2,3-difluoro-4-methoxy-phenyl)-1-methyl-imidazole-2-carbonyl]amino]benzoyl]-N-[[(3R)-pyrrolidin-3-yl]methyl]piperidine-4-carboxamide formate]	50
COc1ccc(-c2cnc(C(=O)Nc3ccc(C(=O)N4CCC(C(=O)N5CCN[C@H](CO)C5)CC4)c(Cl)c3)n2C)c(F)c1F [Example 29, N-[3-chloro-4-[4-[(3S)-3-(hydroxymethyl)piperazine-1-carbonyl]piperidine-1-carbonyl]phenyl]-5-(2,3-difluoro-4-methoxy-phenyl)-1-methyl-imidazole-2-carboxamide]	190
COc1ccc(-c2cnc(C(=O)Nc3ccc(C(=O)N4CCC(C(=O)N5CC(CCN)C5)CC4)c(Cl)c3)n2C)c(F)c1F [Example 40, N-[4-[4-[3-(2-aminoethyl)azetidine-1-carbonyl]piperidine-1-carbonyl]-3-chloro-phenyl]-5-(2,3-difluoro-4-methoxy-phenyl)-1-methyl-imidazole-2-carboxamide formate]	70
Cn1c(-c2ccc(OCF)c(F)c2F)cnc1C(=O)Nc1ccc(C(=O)N2CCN(C(=O)C[C@@H]3CCCN3)CC2)c(Cl)c1 [Example 157, N-[3-chloro-4-[4-[2-[(2S)-pyrrolidin-2-yl]acetyl]piperazine-1-carbonyl]phenyl]-5-[2,3-difluoro-4-(fluoromethoxy)phenyl]-1-methyl-imidazole-2-carboxamide formate]	30
COc1ccc(-c2cnc(C(=O)Nc3ccc(C(=O)N4CCC(C(=O)N[C@H]5CNC[C@@H]5O)CC4)c(Cl)c3)n2C)c(F)c1F [Example 72, 1-[2-chloro-4-[[5-(2,3-difluoro-4-methoxy-phenyl)-1-methyl-imidazole-2-carbonyl]amino]benzoyl]-N-[(3S,4S)-4-hydroxypyrrolidin-3-yl]piperidine-4-carboxamide formate]	50

The remaining lines, values ahead:

IC90 [nM]	SMILES
90	Cn1c(-c2ccc(OCC#N)c(F)c2F)cnc1C(=O)Nc1ccc(C(=O)N2CCN(C(=O)[C@@H]3CCNC[C@H]3O)CC2)c(Cl)c1 [Example 227, N-(3-chloro-4-(4-((3S,4R)-3-hydroxypiperidine-4-carbonyl)piperazine-1-carbonyl)phenyl)-5-(4-(cyanomethoxy)-2,3-difluorophenyl)-1-methyl 1H-imidazole-2-carboxamide (S)-2-hydroxypropanoate]
60	Cn1c(-c2ccc(OCC#N)c(F)c2F)cnc1C(=O)Nc1ccc(C(=O)N2CCN(C(=O)N[C@H]3CNC[C@@H]3O)CC2)c(Cl)c1 [Example 282]
40	Cn1c(-c2ccc(OC(F)F)c(F)c2F)cnc1C(=O)Nc1ccc(C(=O)N2CCN(C(=O)C3CCN(CCN)CC3)CC2)c(Cl)c1 [Example 292, N-[4-[4-[1-(2-aminoethyl)piperidine-4-carbonyl]piperazine-1-carbonyl]-3-chloro-phenyl]-5-[4-(difluoromethoxy)-2,3-difluoro-phenyl]-1-methyl-imidazole-2-carboxamide trifluoroacetate]
50	Cn1c(-c2ccc(OC(F)F)c(F)c2Cl)cnc1C(=O)Nc1ccc(C(=O)N2CCN(C(=O)CC3(O)CCNCC3)CC2)c(Cl)c1 [Example 172, 5-[2-chloro-4-(difluoromethoxy)-3-fluoro-phenyl]-N-[3-chloro-4-[4-[2-(4-hydroxy-4-piperidyl)acetyl]piperazine-1-carbonyl]phenyl]-1-methyl-imidazole-2-carboxamide formate]
30	Cn1c(-c2ccc(OC(F)F)c(F)c2Cl)cnc1C(=O)Nc1ccc(C(=O)N2CCN(C(=O)C3(O)CCNCC3)CC2)c(Cl)c1 [Example 169, 5-[2-chloro-4-(difluoromethoxy)-3-fluoro-phenyl]-N-[3-chloro-4-[4-(4-hydroxypiperidine-4-carbonyl)piperazine-1-carbonyl]phenyl]-1-methyl-imidazole-2-carboxamide formate]
60	Cn1c(-c2ccc(OCC#N)c(F)c2F)cnc1C(=O)Nc1ccc(C(=O)N2CCN(C(=O)[C@@H]3NCC[C@@H]3O)CC2)c(Cl)c1 [Example 210, N-(3-chloro-4-(4-((2R,3S)-3-hydroxypyrrolidine-2-carbonyl)piperazine-1-carbonyl)phenyl)-5-(4-(cyanomethoxy)-2,3-difluorophenyl)-1-methyl-1H-imidazole-2-carboxamide formate]
50	CN(C)CC(=O)N1CCN(C(=O)c2ccc(NC(=O)c3ncc(-c4ccc(OC(F)F)cc4F)n3C)cc2Cl)CC1 [Example 175, N-[3-chloro-4-[4-[2-(dimethylamino)acetyl]piperazine-1-carbonyl]phenyl]-5-[4-(difluoromethoxy)-2-fluoro-phenyl]-1-methyl-imidazole-2-carboxamide formate]
2590	Cn1c(-c2ccc(F)c(C#N)c2F)cnc1C(=O)Nc1ccc(C(=O)N2CCN(C(=O)C3CCNCC3)CC2)c(Cl)c1 [Example 193, N-[3-chloro-4-[4-(piperidine-4-carbonyl)piperazine-1-carbonyl]phenyl]-5-(3-cyano-2,4-difluoro-phenyl)-1-methyl-imidazole-2-carboxamide formate]
850	Cn1c(-c2ccc(OCC#N)c(F)c2F)cnc1C(=O)Nc1ccc(C(=O)N2CCN(C(=O)CN3CC(C(=O)O)C3)CC2)c(Cl)c1 [Example 212, 1-(2-(4-(2-chloro-4-(5-(4-(cyanomethoxy)-2,3-difluorophenyl)-1-methyl-1H-imidazole-2-carboxamido)benzoyl)piperazin-1-yl)-2-oxoethyl)azetidine-3-carboxylic acid 2,2,2-trifluoroacetate]
130	CC[C@@]1(O)CN[C@H](C(=O)N2CCN(C(=O)c3ccc(NC(=O)c4ncc(-c5ccc(OC)c(F)c5F)n4C)cc3Cl)CC2)C1 [Example 233, N-[3-chloro-4-[4-[(2S,4S)-4-ethyl-4-hydroxy-pyrrolidine-2-carbonyl]piperazine-1-carbonyl]phenyl]-5-(2,3-difluoro-4-methoxy-phenyl)-1-methyl-imidazole-2-carboxamide formate]
1300	CN(C)CCN1CCN(C(=O)c2ccc(NC(=O)c3ncc(-c4ccc(Oc5ncccn5)c(F)c4F)n3C)cc2Cl)CC1 [Example 273, N-[3-chloro-4-[4-[2-(dimethylamino)ethyl]piperazine-1-carbonyl]phenyl]-5-(2,3-difluoro-4-pyrimidin-2-yloxy-phenyl)-1-methyl-imidazole-2-carboxamide trifluoroacetate]

Same assay, conditions: Acinetobacter baumannii, ATCC17961, read-out: ATCC 17961 IC90

SMILES	IC90 [nM]
Cn1c(-c2ccc(OCF)c(F)c2F)cnc1C(=O)Nc1ccc(C(=O)N2CCN(C(=O)C3CNCC(O)C3)CC2)c(Cl)c1 (stereo not shown) [Example 171, formate]	50
COc1ccc(-c2cnc(C(=O)Nc3ccc(C(=O)N4CCN(C(=O)C5CCN(CC(=O)O)CC5)CC4)c(Cl)c3)n2C)c(F)c1F [Example 288, 2-[4-[4-[2-Chloro-4-[[5-(2,3-difluoro-4-methoxy-phenyl)-1-methyl-imidazole-2-carbonyl]amino]benzoyl]piperazine-1-carbonyl]-1-piperidyl]acetic acid trifluoroacetate]	470
Cn1c(-c2ccc(OC(F)F)c(F)c2F)cnc1C(=O)Nc1ccc(C(=O)N2CCC(C(=O)N[C@H]3CNC[C@@H]3O)CC2)c(Cl)c1 [Example 93, 1-(2-chloro-4-(5-(4-(difluoromethoxy)-2,3-difluorophenyl)-1-methyl-1H-imidazole-2-carboxamido)benzoyl)-N-((3S,4S)-4-hydroxypyrrolidin-3-yl)piperidine-4-carboxamide formate]	40
